PubChem BioAssay AID256 (DTP/NCI, 2004)
Inconclusive results and toxic doses are left out. How the source made its calls: active means survival T/C of 150% or more; inactive means T/C below 125% in these data.

Test system: CD2F1 mice, L1210 leukemia ip, survival T/C
Test: NCI In Vivo Anticancer Drug Screen. Data for tumor model L1210 Leukemia (intraperitoneal) in CD2F1 (CDF1) mice
Settings: higher = longer survival
Procedure, shortened: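 Tumor-bearing mice (transplanted tumor) were split into treated and vehicle control groups, and the measured endpoint of each treated group was divided by that of its vehicle controls.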

Measured: T/C

Cc1cc(N(CCOS(C)(=O)=O)CCOS(C)(=O)=O)ccc1N=O
inactive: endpoint: mean survival time, dose: 0.25 mg/kg/injection, schedule: Q01DX015 (ip), vehicle: saline 119 % of control | endpoint: mean survival time, dose: 0.5 mg/kg/injection, schedule: Q01DX015 (ip), vehicle: saline 121 % of control | endpoint: mean survival time, dose: 1.0 mg/kg/injection, schedule: Q01DX010 (ip), vehicle: saline 101 % of control | endpoint: mean survival time, dose: 1.0 mg/kg/injection, schedule: Q01DX015 (ip), vehicle: saline 116 % of control | endpoint: mean survival time, dose: 2.0 mg/kg/injection, schedule: Q01DX015 (ip), vehicle: saline 97 % of control

CCN(CC)Cc1ccccn1
inactive: endpoint: mean survival time, dose: 25.0 mg/kg/injection, schedule: Q01DX009 (ip), vehicle: saline 94 % of control | endpoint: mean survival time, dose: 50.0 mg/kg/injection, schedule: Q01DX009 (ip), vehicle: saline 97 % of control | endpoint: mean survival time, dose: 100.0 mg/kg/injection, schedule: Q01DX009 (ip), vehicle: saline 92 % of control | endpoint: mean survival time, dose: 100.0 mg/kg/injection, schedule: Q04DX003 (ip), vehicle: saline 95 % of control

O=C(Nc1ccc(F)cc1)c1ccc(C(=O)Nc2ccc(F)cc2)cc1
inactive: endpoint: mean survival time, dose: 100.0 mg/kg/injection, schedule: Q04DX003 (ip), vehicle: saline with Tween-80 100 % of control | endpoint: mean survival time, dose: 400.0 mg/kg/injection, schedule: Q04DX003 (ip), vehicle: saline with Tween-80 94 % of control

CC1=C[P+](c2ccccc2)(c2ccccc2)C=C(c2ccccc2)O1
inactive: endpoint: median survival time, dose: 1.25 mg/kg/injection, schedule: Q01DX009 (ip), vehicle: suspension in saline 108 % of control | endpoint: median survival time, dose: 2.5 mg/kg/injection, schedule: Q01DX009 (ip), vehicle: suspension in saline 111 % of control | endpoint: median survival time, dose: 5.0 mg/kg/injection, schedule: Q01DX009 (ip), vehicle: suspension in saline 113 % of control | endpoint: median survival time, dose: 10.0 mg/kg/injection, schedule: Q01DX009 (ip), vehicle: suspension in saline 123 % of control | endpoint: median survival time, dose: 20.0 mg/kg/injection, schedule: Q01DX009 (ip), vehicle: suspension in saline 104 % of control
